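In this assay, cells in 96-well plates receive the compound at five concentrations for 48 hours. Endpoints are linearly interpolated between the surrounding concentrations. The concentration for 50% growth inhibition is given as GI50.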 Calls of active or inactive are those of the source. Cut-off read from the data, not from the text of the source: active = GI50 up to about 1.1 µM and inactive = higher.
Tests used:
Test in all cases: NCI tumour cell line growth inhibition, 48 h
786-0 = system: 786-0
K562 = system: K562
DU-145 = system: DU-145
SK-MEL-2 = system: SK-MEL-2
OVCAR-5 = system: OVCAR-5
SNB-75 = system: SNB-75
SR = system: SR
SF-268 = system: SF-268
UO-31 = system: UO-31
COLO 205 = system: COLO 205
Malme-3M = system: Malme-3M
TK-10 = system: TK-10
LOX IMVI = system: LOX IMVI
KM12 = system: KM12
HOP-92 = system: HOP-92
U-251 = system: U-251
PC-3 = system: PC-3
HOP-62 = system: HOP-62
MDA-MB-435 = system: MDA-MB-435
CCRF-CEM = system: CCRF-CEM

Compound	GI50 (786-0)	GI50 (K562)	GI50 (DU-145)	GI50 (SK-MEL-2)	GI50 (OVCAR-5)	GI50 (SNB-75)	GI50 (SR)	GI50 (SF-268)	GI50 (UO-31)	GI50 (COLO 205)	GI50 (Malme-3M)	GI50 (TK-10)	GI50 (LOX IMVI)	GI50 (KM12)	GI50 (HOP-92)	GI50 (U-251)	GI50 (PC-3)	GI50 (HOP-62)	GI50 (MDA-MB-435)	GI50 (CCRF-CEM)
N/C(=N\c1ccc(Cl)cc1)NS(=O)(=O)c1c(C(F)(F)F)cccc1C(F)(F)F	24.8 µM (inactive)	> 100 µM (inactive)	46.5 µM (inactive)	12.7 µM (inactive)	20.2 µM (inactive)	41.8 µM (inactive)	> 100 µM (inactive)	23.3 µM (inactive)	2.29 µM (inactive)	11.1 µM (inactive)	17.4 µM (inactive)	24 µM (inactive)	16.3 µM (inactive)	4.89 µM (inactive)	16.7 µM (inactive)	13.5 µM (inactive)	5.45 µM (inactive)	24 µM (inactive)		
CC(=O)/C(=C/n1c(=S)[nH]c2ccccc21)C(=O)Nc1ccccc1C	> 100 µM (inactive)		> 100 µM (inactive)	> 100 µM (inactive)	> 100 µM (inactive)	> 100 µM (inactive)		> 100 µM (inactive)	> 100 µM (inactive)	> 100 µM (inactive)		> 100 µM (inactive)	> 100 µM (inactive)	> 100 µM (inactive)	> 100 µM (inactive)	> 100 µM (inactive)		> 100 µM (inactive)	> 100 µM (inactive)	
O=S(=O)(SCc1ccccc1)C(c1ccccc1)c1ccccc1	31.6 µM (inactive)	6.67 µM (inactive)		39.1 µM (inactive)	> 100 µM (inactive)	30.3 µM (inactive)	15.2 µM (inactive)	57.1 µM (inactive)	64.6 µM (inactive)	19.6 µM (inactive)	36.1 µM (inactive)	> 100 µM (inactive)	30.4 µM (inactive)	34.1 µM (inactive)	5.57 µM (inactive)	32.9 µM (inactive)		> 100 µM (inactive)		4.21 µM (inactive)
CC(C)(O)C1COC2=C1C(=O)c1ccccc1C2=O (stereo not given)	41.3 µM (inactive)	35.2 µM (inactive)	20.9 µM (inactive)	29.7 µM (inactive)	23.7 µM (inactive)	19.8 µM (inactive)		21.6 µM (inactive)	81.1 µM (inactive)	82 µM (inactive)			19.2 µM (inactive)	88.3 µM (inactive)	27.5 µM (inactive)	58.5 µM (inactive)	31.6 µM (inactive)		23.3 µM (inactive)	46.2 µM (inactive)
Cc1nc(C(N)=S)sc1C(=O)CC(=O)C(=O)Nc1ccc(Br)cc1	> 100 µM (inactive)	> 100 µM (inactive)		> 100 µM (inactive)	> 100 µM (inactive)	> 100 µM (inactive)		> 100 µM (inactive)	> 100 µM (inactive)		> 100 µM (inactive)	> 100 µM (inactive)	> 100 µM (inactive)	> 100 µM (inactive)	> 100 µM (inactive)	> 100 µM (inactive)	> 100 µM (inactive)	> 100 µM (inactive)	> 100 µM (inactive)	> 100 µM (inactive)
COc1cc(/C=C2/SC(c3ccccc3)N(Cc3ccccc3)C2=O)cc(OC)c1OC (stereo not given)	33.2 µM (inactive)	16.4 µM (inactive)	42.7 µM (inactive)	47.8 µM (inactive)	80.9 µM (inactive)		14.2 µM (inactive)	48.1 µM (inactive)	40.5 µM (inactive)	19.8 µM (inactive)	38.4 µM (inactive)	53 µM (inactive)	34.8 µM (inactive)	27.2 µM (inactive)	32.8 µM (inactive)	36.7 µM (inactive)		54.3 µM (inactive)	53.2 µM (inactive)	
COc1ccc2c(c1)C/C(=C\c1cccc3ccccc13)C2=O	15.4 µM (inactive)	2.36 µM (inactive)			94 µM (inactive)	12.4 µM (inactive)	4.65 µM (inactive)	18.4 µM (inactive)	44.5 µM (inactive)			6.07 µM (inactive)	5.07 µM (inactive)	5.41 µM (inactive)		8.71 µM (inactive)	16.2 µM (inactive)			2.65 µM (inactive)
COc1ccc(N2C(=O)C3c4[nH]c5ccccc5c4C4CCCCC4C3C2=O)cc1 (stereo not given)	11.1 µM (inactive)	18.2 µM (inactive)		16.6 µM (inactive)	> 100 µM (inactive)	3.5 µM (inactive)	11.7 µM (inactive)	8.61 µM (inactive)	26.4 µM (inactive)	3.94 µM (inactive)	5.56 µM (inactive)	21.3 µM (inactive)	20 µM (inactive)	38.5 µM (inactive)	18.2 µM (inactive)	15.6 µM (inactive)		15 µM (inactive)		11.9 µM (inactive)
Nc1n2nc(-c3ccccc3)sc2n[n+]1CC(=O)c1ccccc1	19.9 µM (inactive)	3.09 µM (inactive)	17.8 µM (inactive)	38.5 µM (inactive)	34.8 µM (inactive)	26.3 µM (inactive)		24.4 µM (inactive)	16.6 µM (inactive)	17 µM (inactive)	> 10 µM (inactive)	27.4 µM (inactive)	11.1 µM (inactive)	6.3 µM (inactive)		12.6 µM (inactive)	11 µM (inactive)	14 µM (inactive)	2.72 µM (inactive)	3.07 µM (inactive)
C=CCOCCCC(=O)C(=[N+]=[N-])C(=O)OC	> 100 µM (inactive)	> 100 µM (inactive)	> 100 µM (inactive)	> 100 µM (inactive)	> 100 µM (inactive)	> 100 µM (inactive)	> 100 µM (inactive)	> 100 µM (inactive)	> 100 µM (inactive)	> 100 µM (inactive)	> 100 µM (inactive)	> 100 µM (inactive)	> 100 µM (inactive)	> 100 µM (inactive)	> 100 µM (inactive)	> 100 µM (inactive)				> 100 µM (inactive)
COc1ccc2nc(C(=O)c3ccccc3)c(C)cc2c1	7.03 µM (inactive)	0.859 µM (active)		6.27 µM (inactive)	33.9 µM (inactive)	2.96 µM (inactive)	2.81 µM (inactive)	6.76 µM (inactive)	12.9 µM (inactive)	5.93 µM (inactive)	2.94 µM (inactive)	11.1 µM (inactive)	5.43 µM (inactive)	6.58 µM (inactive)	7.13 µM (inactive)	3.5 µM (inactive)		6.47 µM (inactive)		4.2 µM (inactive)
O=C(CC/C(CC(=O)c1ccc(Br)cc1)=N\O)Nc1ccc(Cl)c(Cl)c1	> 100 µM (inactive)	25.4 µM (inactive)		> 100 µM (inactive)	54.6 µM (inactive)	23.8 µM (inactive)	40.3 µM (inactive)	> 100 µM (inactive)	> 100 µM (inactive)	37.8 µM (inactive)	> 100 µM (inactive)	18 µM (inactive)	> 100 µM (inactive)	67.8 µM (inactive)	68.2 µM (inactive)	> 100 µM (inactive)		> 100 µM (inactive)		37.6 µM (inactive)
O=C1/C(=C\c2ccc(Cl)cc2Cl)Sc2scc(-c3ccc(O)c(O)c3)[n+]21	15.7 µM (inactive)		18.3 µM (inactive)	11.5 µM (inactive)	16.4 µM (inactive)	21.8 µM (inactive)		30.3 µM (inactive)	13 µM (inactive)	19 µM (inactive)		12.7 µM (inactive)	16.4 µM (inactive)	15.1 µM (inactive)	7.76 µM (inactive)	11.9 µM (inactive)	13.7 µM (inactive)	15.6 µM (inactive)	12.2 µM (inactive)	17.7 µM (inactive)
C/C(=N\Nc1nc2ccccc2n1C)c1ccncn1	0.08 µM (active)	< 0.0152 µM (active)		2.52 µM (inactive)	1.52 µM (inactive)	1.87 µM (inactive)	0.082 µM (active)	0.0762 µM (active)	0.0391 µM (active)	< 0.01 µM (active)	< 0.0385 µM (active)	1.52 µM (inactive)	0.0845 µM (active)	0.265 µM (active)	0.129 µM (active)	0.0904 µM (active)		5.38 µM (inactive)	0.362 µM (active)	0.0618 µM (active)
O=C(O)CC(O)(c1ccccc1C(=O)O)c1cccc2ccccc12 (stereo not given)	> 100 µM (inactive)	> 100 µM (inactive)		> 100 µM (inactive)	> 100 µM (inactive)	> 100 µM (inactive)	> 100 µM (inactive)	> 100 µM (inactive)	> 100 µM (inactive)	> 100 µM (inactive)	> 100 µM (inactive)	> 100 µM (inactive)	> 100 µM (inactive)	> 100 µM (inactive)	> 100 µM (inactive)	> 100 µM (inactive)		> 100 µM (inactive)		> 100 µM (inactive)
CC(C)(C)c1c(C(C)(C)C)c(=O)c1=O	> 100 µM (inactive)	> 100 µM (inactive)	> 100 µM (inactive)	> 100 µM (inactive)	> 100 µM (inactive)	> 100 µM (inactive)		> 100 µM (inactive)	> 100 µM (inactive)	> 100 µM (inactive)	> 100 µM (inactive)	> 100 µM (inactive)	> 100 µM (inactive)	> 100 µM (inactive)	> 100 µM (inactive)	> 100 µM (inactive)	> 100 µM (inactive)	> 100 µM (inactive)	> 100 µM (inactive)	> 100 µM (inactive)

— ChEMBL document CHEMBL1201862, “PubChem BioAssay data set” (2004)
